Assay [1] addresses T1, hE1 for Nedd8 (APPBP1-UBA3) (Homo sapiens, UniProt Q8TBC4).
T1 construct: made in house; host or cells: E. coli
T1 sequence (Q8TBC4 22-463 limits assumed): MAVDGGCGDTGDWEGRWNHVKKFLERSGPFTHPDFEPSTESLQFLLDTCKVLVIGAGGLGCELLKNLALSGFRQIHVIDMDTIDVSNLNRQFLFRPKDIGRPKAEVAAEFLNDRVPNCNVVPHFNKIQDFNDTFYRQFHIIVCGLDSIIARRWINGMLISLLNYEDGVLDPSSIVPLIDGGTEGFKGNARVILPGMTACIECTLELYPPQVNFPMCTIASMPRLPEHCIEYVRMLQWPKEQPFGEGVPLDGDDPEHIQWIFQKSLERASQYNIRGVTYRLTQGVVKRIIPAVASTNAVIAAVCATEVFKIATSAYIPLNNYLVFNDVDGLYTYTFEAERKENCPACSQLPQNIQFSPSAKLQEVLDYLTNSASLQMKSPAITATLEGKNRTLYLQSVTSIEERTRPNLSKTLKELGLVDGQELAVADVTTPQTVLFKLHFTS
T1 sequence (Q13564 1-534 partner): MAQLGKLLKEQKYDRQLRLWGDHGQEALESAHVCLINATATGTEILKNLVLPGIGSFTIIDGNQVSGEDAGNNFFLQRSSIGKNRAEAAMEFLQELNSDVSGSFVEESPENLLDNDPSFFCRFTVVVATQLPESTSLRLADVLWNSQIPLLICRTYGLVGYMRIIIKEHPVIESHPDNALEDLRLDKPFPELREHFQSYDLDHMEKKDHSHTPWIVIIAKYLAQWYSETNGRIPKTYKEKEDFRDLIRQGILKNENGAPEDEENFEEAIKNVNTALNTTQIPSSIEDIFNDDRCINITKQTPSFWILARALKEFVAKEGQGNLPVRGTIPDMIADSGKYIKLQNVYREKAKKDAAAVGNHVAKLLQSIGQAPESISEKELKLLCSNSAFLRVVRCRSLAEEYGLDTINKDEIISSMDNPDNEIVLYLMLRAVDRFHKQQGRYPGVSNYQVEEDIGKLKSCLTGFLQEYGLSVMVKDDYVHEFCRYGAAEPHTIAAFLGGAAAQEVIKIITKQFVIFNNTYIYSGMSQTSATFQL
The experiment in a line: ITC binding of Ubc12 peptides to hE1. To be noted: for Kd / ΔH / ΔS: ITC; for Kd: protein hE1, titrant Ubc12 peptide; for ΔH / ΔS: protein hE1; for ΔH: change in enthalpy; for ΔS: change in entropy. As to the method:
(§1) Protein samples were buffer matched by desalting over a NAP-5 column (GE Healthcare) into 50 mM Hepes, 125 mM NaCl, 1 mM BME, pH 7.0 (ITC buffer). Peptides were dissolved by weight to a final concentration of 10 mM in ITC buffer and diluted further in ITC buffer as required for the experiments. Measurements were performed using a MicroCal ITC200. hDcn1^P or yDcn1^P were placed into the sample cell at a final concentration of 400 μM at 18° C. The peptide ligands (4 mM) were constantly injected (1.5 μl). The interval time between each injection was 3 minutes and the duration of each injection was 3 seconds. For titrations involving hE1 and yE1, proteins were placed into the sample cell at a final concentration of 25 μM at 22° C. Peptide ligands (250 μM) were constantly injected (2.5 μl). The interval time between each injection was three minutes and the duration of each injection was 5 seconds. For hCul1^ctd-Rbx1:hDcn1^P binding, proteins were buffer matched by desalting over a NAP-5 column in 25 mM Tris, 0.1 M NaCl, 1 mM BME, pH 7.6. hCul1^ctd-Rbx1 was placed into the sample cell at a final concentration of 55 μM at 22° C. hDcn1^P (550 μM) was constantly injected (2.5 μl). The interval time between each injection was 3 minutes and the duration of each injection was 5 seconds. Obtained spectra were evaluated using Origin (V 7.0) to determine heats of binding and Kd values.

The target of the next assay is T2, hDcn1^P (Homo sapiens, UniProt Q96GG9).
T2 construct: hDcn1^P corresponds to residues 62 to the C-terminal residue 259 of hDcn1; GST (cleaved yes); made in house; host or cells: E. coli BL21(DE3)Gold
The assay is described as follows: ITC binding of Ubc12/Ube2f peptides to hDcn1^P. The note with it: for ΔH: change in enthalpy; for ΔS: change in entropy. As to the method:
as §1
The affinity of various peptides for hDcn1^P, hDcn2^P, hDcn3^P, hDcn4^P, and hDcn5^P was tested using isothermal titration calorimetry as described in Example 1 and is provided in Table 29.

A further assay concerns the target T3, yDcn1^P (Saccharomyces cerevisiae, UniProt Q12395).
T3 construct: made in house; host or cells: E. coli
T3 sequence (Q12395 70-269): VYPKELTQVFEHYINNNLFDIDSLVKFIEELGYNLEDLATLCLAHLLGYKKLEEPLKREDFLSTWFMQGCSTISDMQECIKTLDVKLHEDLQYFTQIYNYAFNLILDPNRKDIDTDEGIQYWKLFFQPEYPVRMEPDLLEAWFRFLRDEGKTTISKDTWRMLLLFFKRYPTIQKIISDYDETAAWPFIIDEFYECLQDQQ
The assay is described as follows: ITC binding of Ubc12 peptides to yDcn1^P. The note with it: ITC, protein yDcn1^P. Further details: species or system S. cerevisiae. As to the method:
as §1, with “Measurements were performed using a MicroCal ITC200. hDcn1^P or yDcn1^P were placed into the sample cell at a final concentration of 400 μM at 18° C.” left out, “[…])” for “hDcn1^P (550 μM)”, “seconds.” for “seconds. Obtained spectra were evaluated using Origin (V 7.0) to determine heats of binding and Kd values.”

The mark [2] stands for this setting: protein hDcn1^P, titrant Ubc12 peptide, read-out: Kd.
[3] abbreviates: Table 29, peptides with amidated carboxy-terminus, read-out: Binding Kd for hDcn1^P.

Like-named read-outs stand apart in the source and are kept apart here. Positions of bridges follow the written chain, without caps; N, C: chain ends. Non-standard residues stand in square brackets, D forms with d. Residues, ends and D or L forms follow the SMILES beside them. No end group written: not given here. *: point of attachment. S5 = C=CCCC[C@](C)(N)C(=O)O; For = O=C*

T2 sequence (Q96GG9 62-259): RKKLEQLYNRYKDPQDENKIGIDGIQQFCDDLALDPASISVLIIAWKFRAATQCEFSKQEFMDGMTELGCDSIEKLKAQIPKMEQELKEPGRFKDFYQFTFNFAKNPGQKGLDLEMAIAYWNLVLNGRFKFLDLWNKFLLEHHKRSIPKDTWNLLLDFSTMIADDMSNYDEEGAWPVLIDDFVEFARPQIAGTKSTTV

The Kd is the equilibrium constant for the complex coming apart. With “Ac-IKLFSLKQQKKEEESAGGTKGSSKK-NH2 [Acetyl-hUbc12^2-26]”, the Kd in assay [1] is 390 nM; at hDcn1^P (setting [2]), > 100000 nM. Besides, the ΔH in assay [1] is given as −8,899 cal/mol; at hDcn1^P (protein hDcn1^P) it was 1,719 cal/mol. The ΔS in assay [1] was −1.24 cal/mol/deg; on hDcn1^P (protein hDcn1^P) it was 24.1 cal/mol/deg.
Turning to “Ac-MIKLFSLKQQKKEEESAGGTKGSSKK-NH2 [Acetyl-hUbc12^1-26]”, in assay [1], the Kd came to 943 nM, the ΔH was −9,425 cal/mol and the ΔS is given as −4.79 cal/mol/deg. Besides, on hDcn1^P (protein hDcn1^P), the ΔH is −6,107 cal/mol and the ΔS stood at 5.84 cal/mol/deg.
Turning to `CC[C@H](C)[C@H](NC(=O)[C@H](CO)NC(=O)[C@H](CO)NC(=O)[C@H](CO)NC(=O)[C@H](CC(N)=O)NC(=O)[C@H](CCC(=O)O)NC(=O)[C@H](CC(N)=O)NC(=O)[C@H](CCC(=O)O)NC(=O)[C@H](CCCCN)NC(=O)[C@H](CCC(N)=O)NC(=O)[C@H](CCCCN)NC(=O)[C@H](CCCCN)NC(=O)[C@H](CCCCN)NC(=O)[C@H](CCC(N)=O)NC(=O)[C@H](CC(C)C)NC(=O)[C@H](CCC(N)=O)NC(=O)[C@H](CCCNC(=N)N)NC(=O)[C@H](CC(C)C)NC(=O)[C@H](CCCCN)NC(=O)[C@H](CC(C)C)NC(=O)[C@H](CCSC)NC=O)C(=O)N[C@@H](CCC(N)=O)C(=O)N1CCC[C@H]1C(=O)N[C@@H](CC(N)=O)C(N)=O` [Formyl-yUbc12^1-24] (For-MLKLRQLQKKKQKENENSSSIQPN-NH2), the ΔH at yDcn1^P (change in enthalpy) is on record as 2,824 cal/mol. Further, on yDcn1^P (change in entropy), the ΔS is recorded as 33.4 cal/mol/deg.
Turning to `CC[C@H](C)[C@H](NC(=O)[C@H](CCSC)NC=O)C(=O)N[C@@H](CCCCN)C(=O)N[C@@H](CC(C)C)C(=O)N[C@@H](Cc1ccccc1)C(=O)N[C@@H](CO)C(=O)N[C@@H](CC(C)C)C(=O)N[C@@H](CCCCN)C(=O)N[C@@H](CCC(N)=O)C(=O)N[C@@H](CCC(N)=O)C(=O)N[C@@H](CCCCN)C(=O)N[C@@H](CCCCN)C(=O)N[C@@H](CCC(=O)O)C(=O)N[C@@H](CCC(=O)O)C(=O)N[C@@H](CCC(=O)O)C(=O)N[C@@H](CO)C(=O)N[C@@H](C)C(=O)NCC(=O)NCC(=O)N[C@H](C(=O)N[C@@H](CCCCN)C(=O)NCC(=O)N[C@@H](CO)C(=O)N[C@@H](CO)C(=O)N[C@@H](CCCCN)C(=O)N[C@@H](CCCCN)C(N)=O)[C@@H](C)O` [Formyl-hUbcU^126] (For-MIKLFSLKQQKKEEESAGGTKGSSKK-NH2), on hDcn1^P (protein hDcn1^P), the ΔH is −4,893 cal/mol and the ΔS amounted to 5.79 cal/mol/deg.
For the compound `CC[C@H](C)[C@H](NC(=O)[C@H](CCSC)NC(C)=O)C(=O)N[C@@H](CCCCN)C(=O)N[C@@H](CC(C)C)C(=O)N[C@@]1(C)CCCC=CCCC[C@@](C)(C(=O)N[C@@H](CCC(N)=O)C(=O)N[C@@H](CCCCN)C(=O)N[C@@H](CCCCN)C(N)=O)NC(=O)[C@H](CCCCN)NC(=O)[C@H](CC(C)C)NC(=O)[C@H](CO)NC1=O` [Acetyl-hUbc12^1-12 (5:9Staple)] (Ac-MIKL[S5]SLK[S5]QKK-NH2; staple 5-9), at hDcn1^P (protein hDcn1^P), the ΔH was −3,386 cal/mol and the ΔS is 19.3 cal/mol/deg.
In the case of `CCCC[C@H](N)C(=O)N[C@H](C(=O)N[C@@H](CCCCN)C(=O)N[C@@H](CC(C)C)C(=O)N[C@@H](Cc1ccccc1)C(=O)N[C@@H](CO)C(=O)N[C@@H](CC(C)C)C(=O)N[C@@H](CCCCN)C(=O)N[C@@H](CCC(N)=O)C(=O)N[C@@H](CCC(N)=O)C(=O)N[C@@H](CCCCN)C(=O)N[C@@H](CCCCN)C(N)=O)[C@@H](C)CC` [hUbc12^1−12 (NorLeu)], the Kd on hDcn1^P (setting [3]) is > 400000 nM.
Consider `CC[C@H](C)[C@H](NC(=O)[C@H](CCSC)NC(C)=O)C(=O)N[C@@H](CCCCN)C(=O)N[C@@H](CC(C)C)C(=O)N[C@@H](Cc1ccccc1)C(=O)N[C@@H](CO)C(=O)N[C@@H](CC(C)C)C(=O)N[C@@H](CCCCN)C(=O)N[C@@H](CCC(N)=O)C(=O)N[C@@H](CCC(N)=O)C(=O)N[C@@H](CCCCN)C(=O)N[C@@H](CCCCN)C(N)=O` [Acetyl-hUbc12^1-12], for which, in assay [1], binding was put at a Kd of 630 nM, the ΔH is given as −11,490 cal/mol and the ΔS was −11.0 cal/mol/deg. At hDcn1^P (protein hDcn1^P), the ΔH is listed as −4,992 cal/mol and the ΔS is listed as 8.79 cal/mol/deg.
In the case of “AcetylhUbc12^Ac1-12(5,9 Staple): Acetylated hUbc12 1-12 with Phe5 and Gln9 replaced with (S)-2-(4'-pentenyl)alanine, side-chains covalently linked (Ac-MIKL[S5]SLK[S5]QKK-NH2; staple 5-9)”, in assay [1] (data not shown), the “binding to E1” value is recorded as “no longer binds E1”.
On to “H-MIKLFSLKQQKKEEESAGGTKGSSKK-NH2 [hUbc12^1-26]”, for which, in assay [1], the dissociation constant (Kd) was found to be 585 nM, the ΔH is reported as −8,881 cal/mol and the ΔS is reported as −1.99 cal/mol/deg. On hDcn1^P (protein hDcn1^P), the ΔH is recorded as 1,259 cal/mol and the ΔS was found to be 22.2 cal/mol/deg. In addition, on hDcn1^P (setting [2]), the Kd was > 130000 nM.
Consider “MIKLFSLKQQKKEEESAGGTKGSSKK-NH2 [hUbc12^1−26]”, for which the Kd on hDcn1^P (setting [3]) is > 200000 nM.
For the compound “Ac-IKLFSLKQQKKEEESAGGTKGSSKK-NH2 [hUbc12^Ac−2−26]”, the dissociation constant Kd at hDcn1^P (setting [3]) was > 150000 nM.

These data come from patent US9447156B2, “Methods and compositions for inhibiting neddylation of proteins” (St. Jude Children's Research Hospital, priority 2011, dated 2016).
